Converted amounts (≈) assume the structure as drawn.
What was measured:
Trichomonas vaginalis [1] = test: Antitrichomonas activity against metronidazole-susceptible Trichomonas vaginalis; assay type: functional
[2] = Toxicity against Lactobacillus jensenii ATCC 25258
Trichomonas vaginalis [3] = test: Antitrichomonas activity against metronidazole-resistant Trichomonas vaginalis ATCC 50143; assay type: functional
Spermatozoa = test: Spermicidal activity against human spermatozoa assessed as immobilization measured for 60 seconds; assay type: functional; set-up: concentration or dose not given beside the values
HeLa = test: Cytotoxicity against human HeLa cells; assay type: cell-based
Trichomonas vaginalis [4] = test: Ratio of MIC for metronidazole to compound for metronidazole-resistant Trichomonas vaginalis ATCC 50143; assay type: functional
Trichomonas vaginalis [5] = test: Ratio of MIC for metronidazole to compound for metronidazole-susceptible Trichomonas vaginalis; assay type: functional

MIC (Trichomonas vaginalis [1])	MIC (Trichomonas vaginalis [3])	SMILES	IC50 [2]	Activity (Spermatozoa)	IC50 (HeLa)	Ratio (Trichomonas vaginalis [4])	Ratio (Trichomonas vaginalis [5])
1.53 µM (≈ 0.675 µg/mL)	56.7 µM (≈ 25 µg/mL)	Cc1ncc([N+](=O)[O-])n1CCSC(=S)N1CCC(OC(=O)C(Cl)Cl)CC1	740 µg/mL (≈ 1680 µM)	100%	> 1000 µg/mL	–	–
12.4 µM (≈ 5.07 µg/mL)	61.3 µM (≈ 25 µg/mL)	Cc1ncc([N+](=O)[O-])n1CCSC(=S)N1CCC(OS(C)(=O)=O)CC1	> 1000 µg/mL	100%	> 1000 µg/mL	–	–
49.3 µM (≈ 20.1 µg/mL)	246 µM (≈ 100 µg/mL)	Cc1ncc([N+](=O)[O-])n1CCSC(=S)N1CCC(OC(=O)CCl)CC1	590 µg/mL (≈ 1450 µM)	100%	930 µg/mL (≈ 2290 µM)	–	–
1.37 µM (≈ 0.624 µg/mL)	54.9 µM (≈ 25 µg/mL)	Cc1ncc([N+](=O)[O-])n1CCSC(=S)N1CCC(OC(=O)CN2CCCCC2)CC1	> 1000 µg/mL	<100%	760 µg/mL (≈ 1670 µM)	–	–
1.36 µM (≈ 0.622 µg/mL)	54.7 µM (≈ 25 µg/mL)	Cc1ncc([N+](=O)[O-])n1CCSC(=S)N1CCC(OC(=O)CN2CCOCC2)CC1	> 1000 µg/mL	<100%	840 µg/mL (≈ 1840 µM)	–	–
2.41 µM (≈ 1.25 µg/mL)	96.7 µM (≈ 50.1 µg/mL)	Cc1ncc([N+](=O)[O-])n1CCSC(=S)N1CCC(OC(=O)CSC(=S)N2CCCC2)CC1	> 1000 µg/mL	<100%	> 1000 µg/mL	–	–
2.35 µM (≈ 1.25 µg/mL)	37.7 µM (≈ 20 µg/mL)	Cc1ncc([N+](=O)[O-])n1CCSC(=S)N1CCC(OC(=O)CSC(=S)N2CCCCC2)CC1	> 1000 µg/mL	<100%	980 µg/mL (≈ 1840 µM)	–	–

The remaining lines, values behind:

SMILES	MIC (Trichomonas vaginalis [1])	MIC (Trichomonas vaginalis [3])	IC50 [2]	Activity (Spermatozoa)	IC50 (HeLa)	Ratio (Trichomonas vaginalis [4])	Ratio (Trichomonas vaginalis [5])
Cc1ncc([N+](=O)[O-])n1CCSC(=S)N1CCC2(CC1)OCCO2	1.9 µM (≈ 0.708 µg/mL)	26.9 µM (≈ 10 µg/mL)	> 1000 µg/mL	<100%	> 1000 µg/mL	–	–
Cc1ncc([N+](=O)[O-])n1CCSC(=S)N1CCC(=O)CC1	1.89 µM (≈ 0.621 µg/mL)	30.5 µM (≈ 10 µg/mL)	380 µg/mL (≈ 1160 µM)	<100%	> 1000 µg/mL	–	–
CCOC(=O)C1CCN(C(=S)SCCn2c([N+](=O)[O-])cnc2C)CC1	3.24 µM (≈ 1.25 µg/mL)	64.8 µM (≈ 25 µg/mL)	> 1000 µg/mL	100%	510 µg/mL (≈ 1320 µM)	–	–
Cc1ncc([N+](=O)[O-])n1CCSC(=S)N1CCC(Cc2ccccc2)CC1	12.4 µM (≈ 5.02 µg/mL)	49.5 µM (≈ 20 µg/mL)	> 1000 µg/mL	100%	> 1000 µg/mL	–	–
Cc1ncc([N+](=O)[O-])n1CCSC(=S)N1CCC(C#N)(c2ccccc2)CC1	1.68 µM (≈ 0.698 µg/mL)	24.1 µM (≈ 10 µg/mL)	> 1000 µg/mL	<100%	> 1000 µg/mL	–	–
Cc1ncc([N+](=O)[O-])n1CCSC(=S)N1CCC(O)CC1	1.41 µM (≈ 0.466 µg/mL)	30.3 µM (≈ 10 µg/mL)	350 µg/mL (≈ 1060 µM)	100%	930 µg/mL (≈ 2810 µM)	–	–
Cc1ncc([N+](=O)[O-])n1CCSC(=S)N1CCCCC1C (stereo not drawn)	1.9 µM (≈ 0.624 µg/mL)	15.2 µM (≈ 4.99 µg/mL)	> 1000 µg/mL	100%	170 µg/mL (≈ 518 µM)	10	3
Cc1ncc([N+](=O)[O-])n1CCSC(=S)N1CCCC(C)C1 (stereo not drawn)	1.9 µM (≈ 0.624 µg/mL)	15.2 µM (≈ 4.99 µg/mL)	> 1000 µg/mL	100%	170 µg/mL (≈ 518 µM)	10	3
Cc1ncc([N+](=O)[O-])n1CCSC(=S)N1CCC(C)CC1	1.03 µM (≈ 0.338 µg/mL)	14.3 µM (≈ 4.7 µg/mL)	> 1000 µg/mL	100%	190 µg/mL (≈ 578 µM)	20	10
CCC1CCCCN1C(=S)SCCn1c([N+](=O)[O-])cnc1C (stereo not drawn)	3.65 µM (≈ 1.25 µg/mL)	14.6 µM (≈ 5 µg/mL)	> 1000 µg/mL	100%	94 µg/mL (≈ 274 µM)	10	3
Cc1ncc([N+](=O)[O-])n1CCSC(=S)N1C(C)CCCC1C (stereo not drawn)	1.83 µM (≈ 0.627 µg/mL)	29.2 µM (≈ 10 µg/mL)	> 1000 µg/mL	100%	130 µg/mL (≈ 380 µM)	10	3
Cc1ncc([N+](=O)[O-])n1CCO [METRONIDAZOLE]	11.7 µM (≈ 2 µg/mL)	292 µM (≈ 50 µg/mL)	> 1000 µg/mL	<100%	> 1000 µg/mL	–	–
CCCCCCCCCc1ccc(OCCOCCOCCOCCOCCOCCOCCOCCOCCO)cc1 [NONOXYNOL 9]	–	–	33 µg/mL (≈ 53.5 µM)	100%	33 µg/mL (≈ 53.5 µM)	–	–

Source: ChEMBL document CHEMBL2034943, “Potentiating Metronidazole Scaffold against Resistant Trichomonas: Design, Synthesis, Biology and 3D-QSAR Analysis” (ACS Med Chem Lett, 2012)
